Earlier results in patent US20170368079A1, “ANTI-INFLAMMATORY AND ANTIDIABETIC AGENTS” (priority 2016, published 2017).
Read-outs that look alike come from different tables or passages of the source.

Tests used:
[1] = tested on: platelet aggregation; conditions: unlike aspirin
[2] = tested on: patients with type 2 diabetes
[3] = tested on: prostaglandin synthesis; conditions: in vivo; compared with aspirin and indomethacin
[4] = tested on: glucocorticoid metabolism; conditions: humans; pattern differs between liver and subcutaneous adipose tissue
[5] = compared with placebo, in contrast to aspirin
[6] = tested on: glucocorticoid metabolism; conditions: mice; pattern differs between liver and subcutaneous adipose tissue

O=C(Oc1ccccc1C(=O)O)c1ccccc1O [salsalate, 2-(2-hydroxybenzoyl)oxybenzoic acid]
inhibition of platelet aggregation [1]: does not inhibit platelet aggregation | C-reactive protein [2]: lowers | HbA1c levels [2]: lowers | adiponectin concentrations [2]: increase | blood glucose [2]: lowers | circulating insulin [2]: increase | free fatty acid [2]: lowers | glucose utilization [2]: improve | triglycerides [2]: lowers | anti-inflammatory activity [3]: equivalent to aspirin and indomethacin | glucocorticoid metabolism [4]: alters glucocorticoid metabolism | fecal gastrointestinal blood loss [5]: no greater fecal gastrointestinal blood loss than placebo | glucocorticoid metabolism [6]: alters glucocorticoid metabolism
